In ChEMBL document CHEMBL3526121, “Pharmacokinetics, bioavailability, tissue distribution, excretion, and metabolite identification of methoxyflavones in Kaempferia parviflora extract in rats” (Drug Metab Dispos, 2012):

What was measured:
[1] = Drug excretion in Wistar rat feces at 750 mg/kg, po after 12 hrs by HPLC-UV analysis; type: ADME, organism-based; parameters: dose 750 mg/kg, route oral; settings: in vivo
[2] = Drug excretion in Wistar rat urine at 750 mg/kg, po after 12 hrs by HPLC-UV analysis; type: ADME, organism-based; parameters: dose 750 mg/kg, route oral; settings: in vivo
[3] = Cmax in Wistar rat lung at 750 mg/kg, po by LC-MS/MS analysis; type: ADME, organism-based; parameters: dose 750 mg/kg, route oral
[4] = Cmax in Wistar rat brain at 750 mg/kg, po by LC-MS/MS analysis; type: ADME, organism-based; parameters: dose 750 mg/kg, route oral
[5] = Clearance in Wistar rat at 250 mg/kg, iv by HPLC analysis; type: ADME, organism-based; parameters: dose 250 mg/kg, route intravenous; settings: in vivo
[6] = Elimination rate constant in Wistar rat at 250 mg/kg, po by HPLC analysis; type: ADME, organism-based; parameters: dose 250 mg/kg, route oral; settings: in vivo, read-out: Ke (converted)
Liver = experiment: AUC (0.083 to 4 hrs) in Wistar rat liver at 750 mg/kg, po by LC-MS/MS analysis; type: ADME, organism-based; parameters: time 0.083-4 hr, dose 750 mg/kg, route oral; settings: in vivo
Rattus norvegicus [7] = experiment: Elimination rate constant in Wistar rat at 250 mg/kg, iv by HPLC analysis; type: ADME, organism-based; parameters: dose 250 mg/kg, route intravenous; settings: in vivo
[8] = Tmax in Wistar rat testes at 750 mg/kg, po by LC-MS/MS analysis; type: ADME, organism-based, Testis; parameters: dose 750 mg/kg, route oral
[9] = Half life in Wistar rat at 250 mg/kg, po by HPLC analysis; type: ADME, organism-based; parameters: dose 250 mg/kg, route oral; settings: in vivo
[10] = AUC (0.083 to 4 hrs) in Wistar rat testes at 750 mg/kg, po by LC-MS/MS analysis; type: ADME, organism-based, Testis; parameters: time 0.083-4 hr, dose 750 mg/kg, route oral; settings: in vivo
[11] = AUC in Wistar rat at 250 mg/kg, iv by HPLC analysis; type: ADME, organism-based; parameters: dose 250 mg/kg, route intravenous; settings: plasma
[12] = Drug metabolism in Wistar rat assessed as excretion of 5-hydroxy-2-(3-hydroxy-4-methoxyphenyl)-3,7-dimethoxy-4H-chromen-4-one in urine/feces at 750 mg/kg, po by LC-MS and LC-MS/MS analysis; type: ADME, organism-based; parameters: dose 750 mg/kg, route oral; settings: in vivo
[13] = Oral bioavailability in Wistar rat at 250 mg/kg by HPLC analysis; type: ADME, organism-based; settings: in vivo
Lung = experiment: AUC (0.083 to 4 hrs) in Wistar rat lung at 750 mg/kg, po by LC-MS/MS analysis; type: ADME, organism-based; parameters: time upper 4 hr, time lower 0.083 hr, dose 750 mg/kg, route oral; settings: in vivo
[14] = Drug excretion in Wistar rat feces at 750 mg/kg, po after up to 72 hrs by HPLC-UV analysis; type: ADME, organism-based; parameters: dose 750 mg/kg, route oral; settings: faeces, read-out: Drug excretion
[15] = AUC in Wistar rat at 250 mg/kg, po by HPLC analysis; type: ADME, organism-based; parameters: dose 250 mg/kg, route oral; settings: plasma
[16] = Drug metabolism in Wistar rat assessed as excretion of 3,5-dihydroxy-2-(3-hydroxy-4-methoxyphenyl)-7-methoxy-4H-chromen-4-one in feces at 750 mg/kg, po by LC-MS and LC-MS/MS analysis; type: ADME, organism-based; parameters: dose 750 mg/kg, route oral; settings: in vivo
Rattus norvegicus [17] = experiment: Volume of distribution in Wistar rat at 250 mg/kg, po by HPLC analysis; type: ADME, organism-based; parameters: dose 250 mg/kg, route oral; settings: in vivo
[18] = Tmax in Wistar rat at 250 mg/kg, po by HPLC analysis; type: ADME, organism-based; parameters: dose 250 mg/kg, route oral; settings: in vivo
[19] = Tmax in Wistar rat kidney at 750 mg/kg, po by LC-MS/MS analysis; type: ADME, organism-based; parameters: dose 750 mg/kg, route oral
[20] = Cmax in Wistar rat at 250 mg/kg, po by HPLC analysis; type: ADME, organism-based; parameters: dose 250 mg/kg, route oral; settings: in vivo
[21] = Cmax in Wistar rat kidney at 750 mg/kg, po by LC-MS/MS analysis; type: ADME, organism-based; parameters: dose 750 mg/kg, route oral
Rattus norvegicus [22] = experiment: Absorption rate constant in Wistar rat at 250 mg/kg, po by HPLC analysis; type: ADME, organism-based; parameters: dose 250 mg/kg, route oral; settings: in vivo
[23] = Clearance in Wistar rat at 250 mg/kg, po by HPLC analysis; type: ADME, organism-based; parameters: dose 250 mg/kg, route oral; settings: in vivo
[24] = Cmax in Wistar rat testes at 750 mg/kg, po by LC-MS/MS analysis; type: ADME, organism-based, Testis; parameters: dose 750 mg/kg, route oral
[25] = Tmax in Wistar rat liver at 750 mg/kg, po by LC-MS/MS analysis; type: ADME, organism-based; parameters: dose 750 mg/kg, route oral
Kidney = experiment: AUC (0.083 to 4 hrs) in Wistar rat kidney at 750 mg/kg, po by LC-MS/MS analysis; type: ADME, organism-based; parameters: time 0.083-4 hr, dose 750 mg/kg, route oral; settings: in vivo
[26] = Tmax in Wistar rat brain at 750 mg/kg, po by LC-MS/MS analysis; type: ADME, organism-based; parameters: dose 750 mg/kg, route oral
[27] = Drug excretion in Wistar rat urine at 750 mg/kg, po after up to 72 hrs by HPLC-UV analysis; type: ADME, organism-based; parameters: dose 750 mg/kg, route oral; settings: read-out: Drug excretion
[28] = Drug excretion in Wistar rat feces at 750 mg/kg, po after 18 to 24 hrs by HPLC-UV analysis; type: ADME, organism-based; parameters: dose 750 mg/kg, route oral; settings: in vivo
[29] = Tmax in Wistar rat lung at 750 mg/kg, po by LC-MS/MS analysis; type: ADME, organism-based; parameters: dose 750 mg/kg, route oral
[30] = Drug metabolism in Wistar rat assessed as excretion of 2-(3-hydroxy-4-methoxyphenyl)-3,5,7-trimethoxy-4H-chromen-4-one in urine at 750 mg/kg, po by LC-MS and LC-MS/MS analysis; type: ADME, organism-based; parameters: dose 750 mg/kg, route oral; settings: in vivo
[31] = Drug excretion in Wistar rat urine at 750 mg/kg, po after 24 to 72 hrs by HPLC-UV analysis; type: ADME, organism-based; parameters: dose 750 mg/kg, route oral; settings: in vivo
Brain = experiment: AUC (0.083 to 4 hrs) in Wistar rat brain at 750 mg/kg, po by LC-MS/MS analysis; type: ADME, organism-based; parameters: time 0.083-4 hr, dose 750 mg/kg, route oral; settings: in vivo
Rattus norvegicus [32] = experiment: Half life in Wistar rat at 250 mg/kg, iv by HPLC analysis; type: ADME, organism-based; parameters: dose 250 mg/kg, route intravenous; settings: in vivo
[33] = Cmax in Wistar rat liver at 750 mg/kg, po by LC-MS/MS analysis; type: ADME, organism-based; parameters: dose 750 mg/kg, route oral
[34] = Drug metabolism in Wistar rat urine/feces treated with 750 mg/kg, po of 5,7,4'-trimethoxyflavone by LC-MS and LC-MS/MS analysis; type: ADME, organism-based; parameters: dose 750 mg/kg, route oral; settings: in vivo
[35] = Drug metabolism in Wistar rat urine/feces treated with 750 mg/kg, po of 5,7-dimethoxyflavone by LC-MS and LC-MS/MS analysis; type: ADME, organism-based; parameters: dose 750 mg/kg, route oral; settings: in vivo
[36] = Drug metabolism in Wistar rat urine/feces treated with 750 mg/kg, po of 3,5,7,4'-tetramethoxyflavone by LC-MS and LC-MS/MS analysis; type: ADME, organism-based; parameters: dose 750 mg/kg, route oral; settings: in vivo
[37] = Drug metabolism in Wistar rat urine/feces treated with 750 mg/kg, po of 3,5,7,3',4'-pentamethoxyflavone by LC-MS and LC-MS/MS analysis; type: ADME, organism-based; parameters: dose 750 mg/kg, route oral; settings: in vivo

In the case of `COc1cc(O)c2c(=O)c(OC)c(-c3ccccc3)oc2c1`, the Drug excretion [1] was “Active” and the Drug excretion [2] was “Active”.

In the case of `COc1cc(OC)c2c(=O)c(OC)c(-c3ccc(OC)c(OC)c3)oc2c1`, the Cmax [3] was 2230 ng/g, the Cmax [4] was 260 ng/g and the clearance [5] was 0.359 mL/min. It also gave a k el [6] of 7.78e-05 s⁻¹, an AUC (Liver) of 9.07 µg·h/g and a Ke (Rattus norvegicus [7]) of 0.61 h⁻¹. It also gave a Tmax [8] of 2.36 h, a half-life [9] of 187 min and an AUC [10] of 1.01 µg·h/g. The AUC [11] was 76800 ng·h/mL, the Drug metabolism [12] was “metabolite_detected” and the bioavailability [13] was 3.32%. The Drug excretion [1] was “Active”, the AUC (Lung) was 1.6 µg·h/g and the dose excreted at 72 h [14] was 0.79%. The AUC [15] was 3650 ng·h/mL, the Drug excretion [2] was “Active” and the Drug metabolism [16] was “metabolite_detected”. It also gave a Vd (Rattus norvegicus [17]) of 2637.13 mL, a Tmax [18] of 1.71 h and a Tmax [19] of 3.43 h. It also gave a Cmax [20] of 550 ng/mL, a Cmax [21] of 1000 ng/g and a ka (Rattus norvegicus [22]) of 1.23 h⁻¹. The CL/F [23] was 10.4 mL/min, the Cmax [24] was 500 ng/g and the Tmax [25] was 3.43 h. It also gave an AUC (Kidney) of 2.03 µg·h/g, a Tmax [26] of 3.14 h and a dose excreted at 72 h [27] of 1.06%. The Drug excretion [28] was “Active”, the Tmax [29] was 4.8 min and the Drug metabolism [30] was “metabolite_detected”. For the same compound, the Drug excretion [31] was “Active”, the AUC (Brain) was 0.76 µg·h/g and the t1/2 (Rattus norvegicus [32]) was 2.36 h. For the same compound, the Cmax [33] was 3100 ng/g.

With `COc1ccc(-c2cc(=O)c3c(O)cc(OS(=O)(=O)O)cc3o2)cc1` the Drug metabolism [34] was “metabolite_detected”.

For `COc1ccc(-c2cc(=O)c3c(OS(=O)(=O)O)cc(OC)cc3o2)cc1`, the Drug metabolism [34] was “metabolite_detected”.

In the case of `COc1cc(OS(=O)(=O)O)c2c(=O)cc(-c3ccccc3)oc2c1`, the Drug metabolism [35] was “metabolite_detected”.

With `COc1ccc(-c2oc3cc(OC)cc(O)c3c(=O)c2O)cc1` the Drug metabolism [36] was “metabolite_detected”.

For `COc1cc(OC)c2c(=O)c(OC)c(-c3ccc(OC)c(O)c3)oc2c1`, the Drug metabolism [37] was “metabolite_detected”.

For `COc1ccc(-c2oc3cc(OC)cc(O)c3c(=O)c2OC)cc1`, the Drug excretion [1] was “Active” and the Drug excretion [2] was “Active”.

With `COc1cc(O)c2c(=O)c(OC)c(-c3ccc(OC)c(O)c3)oc2c1` [AYANIN] the Drug metabolism [37] was “metabolite_detected”.
